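Tested at 5 concentrations; 48 h exposure; 96-well plates; endpoints linearly interpolated, else capped at highest concentration. Here, GI50 denotes the concentration required for 50% inhibition of growth.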 Activity calls are given as the source filed them. No stated cut-off is given here; in the data, active = GI50 up to about 1.1 µM and inactive = higher.
Columns and labels:
Assay in all cases: inhibition of tumour cell growth, NCI panel, 48 h
SK-OV-3 = test system: SK-OV-3
NCI-H460 = test system: NCI-H460
HL-60 = test system: HL-60
SNB-75 = test system: SNB-75
MCF7 = test system: MCF7
NCI-H522 = test system: NCI-H522
K562 = test system: K562
SK-MEL-2 = test system: SK-MEL-2
T47D = test system: T47D
TK-10 = test system: TK-10
RXF 393 = test system: RXF 393
PC-3 = test system: PC-3
DU-145 = test system: DU-145
HCT-116 = test system: HCT-116
NCI-H23 = test system: NCI-H23
COLO 205 = test system: COLO 205
SK-MEL-28 = test system: SK-MEL-28
UACC-62 = test system: UACC-62
SW-620 = test system: SW-620
EKVX = test system: EKVX

Measured: GI50

CO[C@]12S[C@@H]3CCCC[C@@]31C(C)(C)C(=O)N2c1ccccc1
inactive: SK-OV-3 25.8 µM | NCI-H460 33 µM | HL-60 14.6 µM | SNB-75 51.5 µM | MCF7 27.4 µM | NCI-H522 27.6 µM | K562 29.7 µM | SK-MEL-2 26.8 µM | T47D 30.7 µM | TK-10 55.5 µM | RXF 393 49.5 µM | PC-3 23.6 µM | DU-145 55.3 µM | HCT-116 33.2 µM | NCI-H23 28.8 µM | COLO 205 14.4 µM | SK-MEL-28 75.5 µM | UACC-62 49.8 µM | SW-620 30.4 µM | EKVX 55.7 µM

O=C1C=CC(=O)C1(Br)Br
inactive: SK-OV-3 21 µM | NCI-H460 19.3 µM | HL-60 11.4 µM | SNB-75 12 µM | MCF7 11 µM | NCI-H522 6.27 µM | K562 10.2 µM | SK-MEL-2 12.5 µM | T47D 14.8 µM | TK-10 2.67 µM | RXF 393 6.37 µM | PC-3 14.6 µM | DU-145 16 µM | HCT-116 7.69 µM | NCI-H23 15.5 µM | COLO 205 10 µM | SK-MEL-28 7.24 µM | UACC-62 10.8 µM | SW-620 10.1 µM | EKVX 14.5 µM

CCCC1(N)CC(OC)OC(C)C1O (stereo not given)
inactive: SK-OV-3 > 100 µM | NCI-H460 > 100 µM | HL-60 > 100 µM | SNB-75 > 100 µM | MCF7 > 100 µM | NCI-H522 > 100 µM | K562 > 100 µM | SK-MEL-2 > 100 µM | T47D > 100 µM | TK-10 > 100 µM | RXF 393 > 100 µM | PC-3 > 100 µM | DU-145 > 100 µM | HCT-116 > 100 µM | NCI-H23 > 100 µM | COLO 205 > 100 µM | SK-MEL-28 > 100 µM | UACC-62 > 100 µM | SW-620 > 100 µM | EKVX > 100 µM

CS(=O)(=O)OCCCCOS(C)(=O)=O [BUSULFAN]
inactive: SK-OV-3 > 237 µM | NCI-H460 95.9 µM | HL-60 125 µM | SNB-75 144 µM | MCF7 213 µM | NCI-H522 239 µM | K562 201 µM | SK-MEL-2 248 µM | T47D > 250 µM | TK-10 > 250 µM | RXF 393 182 µM | PC-3 235 µM | DU-145 220 µM | HCT-116 238 µM | NCI-H23 230 µM | COLO 205 222 µM | SK-MEL-28 203 µM | UACC-62 187 µM | SW-620 224 µM | EKVX > 201 µM

Source: ChEMBL document CHEMBL1201862, “PubChem BioAssay data set” (2004)
